ChEMBL document CHEMBL1201862, “PubChem BioAssay data set” (2004)
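96-well plates; 48 h exposure; 5 concentrations. Endpoints by linear interpolation between flanking doses. Not reached: highest tested concentration assigned. The concentration for 50% growth inhibition is given as GI50.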 The source made the active and inactive calls. No stated cut-off is given here; in the data, active = GI50 up to about 1.1 µM and inactive = higher. Where a SMILES comes first, the peptide text is derived from it.

Experiments:
Test in all cases: NCI tumour cell line growth inhibition, 48 h
HCC 2998 = tested on: HCC 2998
U-251 = tested on: U-251
SR = tested on: SR
SF-295 = tested on: SF-295
OVCAR-3 = tested on: OVCAR-3
CAKI-1 = tested on: CAKI-1
RPMI-8226 = tested on: RPMI-8226
LOX IMVI = tested on: LOX IMVI
MDA-MB-231 = tested on: MDA-MB-231
OVCAR-8 = tested on: OVCAR-8
HCT-116 = tested on: HCT-116
RXF 393 = tested on: RXF 393
SN12C = tested on: SN12C
DU-145 = tested on: DU-145
M14 = tested on: M14
SNB-19 = tested on: SNB-19
SW-620 = tested on: SW-620
OVCAR-4 = tested on: OVCAR-4

SMILES	GI50 (HCC 2998)	GI50 (U-251)	GI50 (SR)	GI50 (SF-295)	GI50 (OVCAR-3)	GI50 (CAKI-1)	GI50 (RPMI-8226)	GI50 (LOX IMVI)	GI50 (MDA-MB-231)	GI50 (OVCAR-8)	GI50 (HCT-116)	GI50 (RXF 393)	GI50 (SN12C)	GI50 (DU-145)	GI50 (M14)	GI50 (SNB-19)	GI50 (SW-620)	GI50 (OVCAR-4)
Nc1ccccc1/N=C/c1cc2cc([N+](=O)[O-])ccc2s1	19.3 µM (inactive)	14.5 µM (inactive)	11 µM (inactive)	21.9 µM (inactive)	14 µM (inactive)	15.5 µM (inactive)	5.52 µM (inactive)	13.9 µM (inactive)	16.3 µM (inactive)	15 µM (inactive)	24.9 µM (inactive)	14.5 µM (inactive)	23.8 µM (inactive)	12.6 µM (inactive)	22.4 µM (inactive)	14.1 µM (inactive)	29.5 µM (inactive)	
O=S(=O)(c1ccccc1)[C@H]1[C@@H]2O[C@@H]2C[C@@H]1O	> 100 µM (inactive)	> 100 µM (inactive)	> 100 µM (inactive)	> 100 µM (inactive)	> 100 µM (inactive)	> 100 µM (inactive)	> 100 µM (inactive)		> 100 µM (inactive)	> 100 µM (inactive)	> 100 µM (inactive)	> 100 µM (inactive)	> 100 µM (inactive)	> 100 µM (inactive)	> 100 µM (inactive)	> 100 µM (inactive)	> 100 µM (inactive)	> 100 µM (inactive)
O=C(O)C1Cc2ccccc2OC1=O (stereo not given)	> 100 µM (inactive)	> 100 µM (inactive)	> 100 µM (inactive)	> 100 µM (inactive)	> 100 µM (inactive)	> 100 µM (inactive)	> 100 µM (inactive)		> 100 µM (inactive)	> 100 µM (inactive)	> 100 µM (inactive)	> 100 µM (inactive)	> 100 µM (inactive)	> 100 µM (inactive)	> 100 µM (inactive)	> 100 µM (inactive)	> 100 µM (inactive)	
O=C1/C(=N\NC(=S)Nc2ccc(Cl)cc2)c2cc([N+](=O)[O-])ccc2N1CN1CCOCC1		7.18 µM (inactive)	1.99 µM (inactive)	4.97 µM (inactive)	3.99 µM (inactive)	3.52 µM (inactive)		10.1 µM (inactive)	15 µM (inactive)	5.6 µM (inactive)	4.12 µM (inactive)	7.19 µM (inactive)	4.12 µM (inactive)	10.5 µM (inactive)	10.1 µM (inactive)	7.89 µM (inactive)	4.37 µM (inactive)	10 µM (inactive)
CC(=O)OCC(OC(C)=O)C1C[C@H]2O[C@@H]3[C@H](C[C@H]2O1)O[C@@]1(C[C@@H]3C)C[C@H](C)[C@@H]2O[C@]3(C[C@@H]2O1)C[C@H]1O[C@H]2[C@H](C)[C@H]4OC(=O)CC5CC[C@H]6OC7[C@H]8O[C@]9(CC[C@H]%10CC(O)(CO)[C@H](CC[C@H]%11C[C@@H](C)C(O)(CO)C(C[C@@H]4O[C@H]2C[C@H]1O3)O%11)O%10)CC8O[C@@H]7[C@@H](O9)[C@H]6O5 (stereo not given in full)	0.00532 µM (active)	0.00618 µM (active)	0.000581 µM (active)	0.0043 µM (active)	0.00655 µM (active)	0.0127 µM (active)	0.00282 µM (active)	0.0146 µM (active)	0.0705 µM (active)	0.0121 µM (active)	0.00438 µM (active)	0.00253 µM (active)	0.0227 µM (active)	0.00386 µM (active)	0.00935 µM (active)	0.0194 µM (active)	0.00492 µM (active)	
COc1cc2c(c(OC)c1)C(C)=NC(C)C2 (stereo not given)	> 100 µM (inactive)		> 100 µM (inactive)	> 100 µM (inactive)		> 100 µM (inactive)	> 100 µM (inactive)	> 100 µM (inactive)	> 100 µM (inactive)	> 100 µM (inactive)	51.2 µM (inactive)		> 100 µM (inactive)	> 100 µM (inactive)	> 100 µM (inactive)	> 100 µM (inactive)	> 100 µM (inactive)	
Cc1ccc(/C=C2\CCCc3ccccc3C2=O)cc1		17.4 µM (inactive)	13.9 µM (inactive)	3.45 µM (inactive)	15 µM (inactive)	27.2 µM (inactive)	16.3 µM (inactive)	14.9 µM (inactive)	9.62 µM (inactive)	22.4 µM (inactive)	13.7 µM (inactive)		11.7 µM (inactive)	22.2 µM (inactive)	3.21 µM (inactive)	19.5 µM (inactive)	22.9 µM (inactive)	25.9 µM (inactive)
CNC(=O)CNC(=O)C(NC(=O)CNC(=O)C1CCCN1C(=O)C(C)NC(=O)C(NC(C)=O)C(C)C)C(C)C (stereo not given) (Ac-VAPGVG-NHMe; configuration not given here)	> 100 µM (inactive)	> 100 µM (inactive)	> 100 µM (inactive)	> 100 µM (inactive)	> 100 µM (inactive)	> 100 µM (inactive)	> 100 µM (inactive)	> 100 µM (inactive)	> 100 µM (inactive)	> 100 µM (inactive)	> 100 µM (inactive)		> 100 µM (inactive)	> 100 µM (inactive)	> 100 µM (inactive)	> 100 µM (inactive)	> 100 µM (inactive)	> 100 µM (inactive)
